Reference: the NIST ThermoML archive (doi:10.1016/j.jct.2015.05.027)

Settings: Liquid, Vibrating tube method

CCC(C)O (centres undefined) [butan-2-ol]
mass density [kg/m3]
Settings	293.15 K	298.15 K	313.15 K	333.15 K
100 kPa	806.7	802.6	789.5	770.8
1000 kPa	807.4	803.3	790.3	771.7
5000 kPa	810.4	806.4	793.6	775.6
10000 kPa	814	810.1	797.7	780.2
15000 kPa	817.4	813.6	801.6	784.6
20000 kPa	820.7	817	805.2	788.8
25000 kPa	823.9	820.2	808.5	792.6
30000 kPa	826.9	823.4	812.1	796.3
35000 kPa	829.9	826.3	815.3	800
40000 kPa	832.7	829.2	818.4	803.4
45000 kPa	835.4	832	821.3	–
50000 kPa	838.1	834.7	824.2	–
55000 kPa	840.6	837.4	827	–
60000 kPa	843.2	839.9	829.8	–
65000 kPa	845.7	842.4	832.5	–
70000 kPa	848	844.8	835	–
80000 kPa	852.6	849.5	839.9	–
90000 kPa	857.1	854	844.7	–
100000 kPa	861.2	858.2	849.1	–
110000 kPa	865.3	862.4	853.4	–
120000 kPa	869.2	866.2	857.5	–
130000 kPa	873	870.1	861.5	–
140000 kPa	876.6	873.7	865.4	–
